Test [1] deals with K562. Put plainly: Cellular viability in reduced serum, CellTiter-Glo, K562. The following applies: Homo sapiens; K562, reduced serum (1% FBS). The test is classed as cell-based. The procedure:
(§1) To evaluate compound effect on cellular proliferation, cells were plated at 1,000 cells/well in 96-well tissue culture plates in a total volume of 90 uL medium supplemented with 10% FBS (Sigma, Saint Louis, Mo.). 24 hours later, 10 uL of compound (in a 2-fold serial dilution) is added to the cells for a top concentration of 50 uM and a final DMSO concentration <1%. After 72 hours, cell number was measured using the CellTiter-Glo Luminescent assay according to manufacturer's recommendations (Promega, Madison, Wis.). A viability assay in reduced serum was also conducted. Cells were plated at 5,000 cells/well in 96-well plates in a total volume of 100 uL medium supplemented with 10% FBS (Sigma, Saint Louis, Mo.). 24 hours later, the medium was replaced with 90 uL medium containing 1% FBS and the assay conducted as described. IC50 values were determined by plotting growth against compound concentration in a 4-parameter logisitic model in XLFit.
(In general: In ATP-based viability assays light output follows the ATP content of the culture.)

The test system of test [2] is NCI-929. In words: Cellular proliferation, CellTiter-Glo, NCI-929. The test is classed as cell-based. As to conditions: Homo sapiens; NCI-929, 10% FBS, 72 hours. The protocol:
as §1

In test [3] the test system is MDA-MB-231. Put plainly: Cellular viability in reduced serum, CellTiter-Glo, MDA-MB-231. The test is classed as cell-based. The following applies: Homo sapiens; MDA-MB-231, reduced serum (1% FBS). The protocol:
as §1

In test [4] the test system is MDA-MB-468. In words: Cellular viability in reduced serum, CellTiter-Glo, MDA-MB-468. The following applies: Homo sapiens, MDA-MB-468, read-out: IC50 on cellular viability, MDA-MB-468. The test is classed as cell-based. The procedure: as §1
The test system of test [5] is NCI-929. Put plainly: Cellular viability in reduced serum, CellTiter-Glo, NCI-929. The test is classed as cell-based. As to conditions: Homo sapiens; NCI-929, reduced serum (1% FBS). The protocol:
as §1

Test [6] has as its system MDA-MB-231. In words: Cellular proliferation, CellTiter-Glo, MDA-MB-231. The test is classed as cell-based. The following applies: Homo sapiens; MDA-MB-231, 10% FBS, 72 hours. The protocol: as §1
Test [7] deals with recombinant Mcl-1 (residues 172-327) (Homo sapiens (Human), UniProt Q07820). In words: Bak peptide fluorescence polarization anisotropy competition assay, Mcl-1. The test is classed as binding. The following applies: Table 2, Ki range; FITC-Bak peptide 10 nM, Mcl-1 14 nM; read-out: Ki for inhibition of Mcl-1.
recombinant Mcl-1 (residues 172-327), sequence (Q07820 172-327): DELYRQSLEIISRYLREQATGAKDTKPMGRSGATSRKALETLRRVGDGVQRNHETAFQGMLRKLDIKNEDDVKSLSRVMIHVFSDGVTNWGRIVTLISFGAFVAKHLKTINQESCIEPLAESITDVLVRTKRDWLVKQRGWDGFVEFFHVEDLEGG
For test [8], the system named is MDA-MB-468. Put plainly: Cellular proliferation, CellTiter-Glo, MDA-MB-468. The test is classed as cell-based. As to conditions: Homo sapiens, MDA-MB-468, 72 h, read-out: IC50 on cellular proliferation, MDA-MB-468. The protocol:
as §1

The test system of test [9] is K562. Put plainly: Cellular proliferation, CellTiter-Glo, K562. The test is classed as cell-based. The following applies: Homo sapiens; K562, 10% FBS, 72 hours. The procedure:
as §1

Test [10] deals with Bcl-2 (residues 1-207 A96T,G110R, Δ35-91, replaced with Bcl-xL35-50) (Homo sapiens, UniProt P10415, A37E/DEL42-87/G36T/INS34DVEEN/P40E/P88T/P90S/P91E/V35R/V89E). Put plainly: Bak peptide fluorescence polarization anisotropy competition assay, Bcl-2 selectivity. The test is classed as binding. As to conditions: Table 3; FITC-Bak peptide 10 nM, Bcl-2 40 nM. The procedure: (§2) Compound affinity was measured using a fluorescence polarization anisotropy competition assay. Anisotropy measurements were carried out in 384-well, black, flat-bottom plates (Greiner Bio-one, Monroe, N.C., USA).
Bcl-2 (residues 1-207 A96T,G110R, Δ35-91, replaced with Bcl-xL35-50), sequence (P10415 with tags, fused parts or gaps A37E/DEL42-87/G36T/INS34DVEEN/P40E/P88T/P90S/P91E/V35R/V89E): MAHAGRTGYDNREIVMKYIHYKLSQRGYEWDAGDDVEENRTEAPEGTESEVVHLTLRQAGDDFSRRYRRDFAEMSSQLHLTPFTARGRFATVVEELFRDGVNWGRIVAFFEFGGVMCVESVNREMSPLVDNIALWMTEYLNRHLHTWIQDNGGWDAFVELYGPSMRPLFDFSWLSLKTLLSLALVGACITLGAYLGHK
(§3) Compounds are diluted in DMSO in a 10-point, 3-fold serial dilution scheme. 2.5 uL compound is added to 47.5 uL of assay buffer containing FITC-Bak and protein, for a final DMSO concentration of 5% and a top concentration of 20 uM. […] The plate was mixed and incubated for 90 minutes at room temperature.
In general terms: In fluorescence polarisation assays a small probe gives low polarisation when free and higher when bound to something large.

Test [11] concerns the target Bcl-xL (residues 1-209, loop 45-86 deleted) (Homo sapiens (Human), UniProt Q07817, DEL45-86). In words: Bak peptide fluorescence polarization anisotropy competition assay, Bcl-xL selectivity. The test is classed as binding. The following applies: Table 3; FITC-Bak peptide 10 nM, Bcl-xL 4 nM. The procedure: as §2, §3

Structures are written as SMILES.

A word on the Ki: it is a dissociation constant, usually derived from enzyme kinetics or from competition with a known ligand.

Bcl-xL (residues 1-209, loop 45-86 deleted), sequence (Q07817 other isoform, or with tags, fused parts or gaps del 45-86): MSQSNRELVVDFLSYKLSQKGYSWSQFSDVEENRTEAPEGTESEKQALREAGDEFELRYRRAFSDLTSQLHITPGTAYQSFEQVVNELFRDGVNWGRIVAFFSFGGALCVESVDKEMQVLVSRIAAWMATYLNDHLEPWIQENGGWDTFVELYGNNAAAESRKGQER

Take `Cc1cc(OCCCc2c(C(=O)NS(=O)(=O)CCNC(=O)c3cccn3Cc3ccccc3)[nH]c3c(-c4c(CO)nn(C)c4C)cccc23)cc(C)c1Cl` [Example 207, N-((2-(1-benzyl-1H-pyrrole-2-carboxamido)ethyl)sulfonyl)-3-(3-(4-chloro-3,5-dimethylphenoxy)propyl)-7-(3-(hydroxymethyl)-1,5-dimethyl-1H-pyrazol-4-yl)-1H-indole-2-carboxamide]: the IC50 in the test with K562 [1] was 10.1 µM; in the test with NCI-929 [2], 30 µM; in the test with MDA-MB-231 [3], 14.2 µM; in the test on MDA-MB-468 [4] it was 14.8 µM; in the test with NCI-929 [5] it was 12 µM; in the test on MDA-MB-231 [6] it was over 50 µM. Besides, the IC50 with MDA-MB-468 [8] was 45.7 µM; in the test on K562 [9] it was over 50 µM. Besides, in test [7], the Ki is at most 0.1 µM.

In the case of `Cc1cc(OCCCc2c(C(=O)O)sc3cc(Cl)ccc23)cc(C)c1Cl` [Example 6], the values for the Ki in [10] and in [11] were 0.99 µM and 2.4 µM, respectively.

Consider `Cc1cc(OCCCc2c(C(=O)NS(=O)(=O)CCNC(=O)c3cccn3C)[nH]c3c(-c4c(CO)nn(C)c4C)cccc23)cc(C)c1Cl` [Example 206, 3-(3-(4-chloro-3,5-dimethylphenoxy)propyl)-7-(3-(hydroxymethyl)-1,5-dimethyl-1H-1-pyrazol-4-yl)-N-((2-(1-methyl-1H-pyrrole-2-carboxamido)ethyl)sulfonyl)-1H-indole-2-carboxamide], for which the IC50 is 10.7 µM in the test with K562 [1]; over 50 µM with NCI-929 [2]; 18.4 µM with MDA-MB-231 [3]; 26.8 µM in the test on MDA-MB-468 [4]; 33.9 µM with NCI-929 [5]; over 50 µM with MDA-MB-231 [6]. The IC50 in the test with MDA-MB-468 [8] was 50 µM; with K562 [9] it was over 50 µM. Besides, the Ki in test [7] is at most 0.1 µM.

As to `Cc1cc(OCCCc2c(C(=O)NS(=O)(=O)c3ccccc3)[nH]c3c(-c4cccnc4C)cccc23)cc(C)c1Cl` [Example 97, 3-(3-(4-chloro-3,5-dimethylphenoxy)propyl)-7-(2-methylpyridin-3-yl)-N-(phenylsulfonyl)-1H-indole-2-carboxamide], the IC50 was determined as 2.6 µM in the test with K562 [1]; 23.3 µM in the test with NCI-929 [2]; 12.9 µM in the test with MDA-MB-231 [3]; 11.2 µM with MDA-MB-468 [4]; 5.1 µM in the test on NCI-929 [5]; 16.9 µM with MDA-MB-231 [6]. For the same compound, the IC50 is 13.8 µM with MDA-MB-468 [8] and 17.9 µM with K562 [9].

The values are drawn from patent publication US10844032B2, “Substituted benzofuran, benzothiophene and indole Mcl-1 inhibitors” (Vanderbilt University, priority 2012, dated 2020).
